Structures can show the parent of a compound that is named as a salt.
Molecular target: T1, human β3 adrenergic receptor (Homo sapiens, UniProt P13945)
T1 construct: stably transfected with the cloned β-adrenergic receptor (β1, β2 or β3); expressed in transfected cells; host or cells: Chinese hamster ovary (CHO) cells, stably transfected
Test: Functional assay: cAMP production (LANCE TR-FRET) in CHO cells stably transfected with cloned β3 adrenergic receptor
Format: cell-based
Details: Table 2; cAMP production, CHO cells expressing human β3 AR; read-out: Human β3 functional

T1 sequence (P13945 whole entry): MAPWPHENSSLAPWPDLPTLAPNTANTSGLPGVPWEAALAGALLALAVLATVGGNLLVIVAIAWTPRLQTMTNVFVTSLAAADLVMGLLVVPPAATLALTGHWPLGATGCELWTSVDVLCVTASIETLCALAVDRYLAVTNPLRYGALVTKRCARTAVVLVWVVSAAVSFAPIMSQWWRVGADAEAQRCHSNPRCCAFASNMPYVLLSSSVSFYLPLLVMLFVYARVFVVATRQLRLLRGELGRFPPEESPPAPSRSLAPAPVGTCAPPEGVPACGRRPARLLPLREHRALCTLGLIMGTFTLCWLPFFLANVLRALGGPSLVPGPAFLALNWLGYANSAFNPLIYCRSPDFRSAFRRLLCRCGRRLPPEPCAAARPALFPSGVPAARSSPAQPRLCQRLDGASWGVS

First: Nc1nc(CC(=O)Nc2ccc(CC3CC[C@H]([C@H](O)c4cccnc4)N3)cc2)cs1 (stereo partly shown) [Example 3]
Second: Cc1nc(CC(=O)Nc2ccc(CC3CC[C@H]([C@H](O)c4cccnc4)N3)cc2)c(C)s1 (stereo partly shown) [Example 10]
The EC50 of the first is lower: 1 to 10 nM for the first, 11 to 100 nM for the second. The first is the more potent here.

First: O=C(Cc1n[nH]c(-c2ccccc2)n1)Nc1ccc(CC2CC[C@H]([C@H](O)c3cccnc3)N2)cc1 (stereo partly shown) [Example 4]
Second: O=C(Cn1ncc2ccccc21)Nc1ccc(CC2CC[C@H]([C@H](O)c3cccnc3)N2)cc1 (stereo partly shown) [Example 5]
The EC50 of the first is lower: 1 to 10 nM for the first, 11 to 100 nM for the second. The first is the more potent here.

`O=C(Cn1cc2ccccc2n1)Nc1ccc(CC2CC[C@H]([C@H](O)c3cccnc3)N2)cc1` (stereo partly shown) [Example 6] and `O=C(Cn1nc2ccccc2n1)Nc1ccc(CC2CC[C@H]([C@H](O)c3cccnc3)N2)cc1` (stereo partly shown) [Example 7] fall in the same range of EC50: 11 to 100 nM for the first, 11 to 100 nM for the second.

`O=C(Cn1nc(Cc2ccccc2)c2ccccc2c1=O)Nc1ccc(CC2CC[C@H]([C@H](O)c3cccnc3)N2)cc1` (stereo partly shown) [Example 8] and `Cc1nn(CC(=O)Nc2ccc(CC3CC[C@H]([C@H](O)c4cccnc4)N3)cc2)c(=O)c2ccccc12` (stereo partly shown) [Example 9] fall in the same range of EC50: 1 to 10 nM for the first, 1 to 10 nM for the second.

`Cc1nc2ccccc2c(=O)n1CC(=O)Nc1ccc(CC2CC[C@H]([C@H](O)c3cccnc3)N2)cc1` (stereo partly shown) [Example 11] was tested, and the EC50 was 1 to 10 nM.

Same assay, conditions: Table 3; cAMP production, CHO cells expressing human β3 AR; read-out: Human β3 functional

`CCC(C(=O)Nc1ccc(CC2CC[C@H]([C@H](O)c3cccnc3)N2)cc1)n1cccn1` (single isomer, unassigned) [Example 185] and `COCCC(C(=O)Nc1ccc(CC2CC[C@H]([C@H](O)c3cccnc3)N2)cc1)n1cccn1` (single isomer, unassigned) [Example 220] fall in the same range of EC50: 1 to 10 nM for the first, 1 to 10 nM for the second.

Compared with `O=C(Nc1ccc(CC2CC[C@H]([C@H](O)c3cccnc3)N2)cc1)C1CCc2sc(Cl)nc21` (single isomer, unassigned) [Example 186], `O=C(Nc1ccc(CC2CC[C@H]([C@H](O)c3cccnc3)N2)cc1)C1CCc2sc(CO)nc21` (single isomer, unassigned) [Example 188] is higher in EC50: under 1 nM for the first, 1 to 10 nM for the second.

`O=C(Nc1ccc(CC2CC[C@H]([C@H](O)c3cccnc3)N2)cc1)C1CCc2sc(Cl)nc21` (single isomer, unassigned) [Example 187] and `O=C(Nc1ccc(CC2CC[C@H]([C@H](O)c3cccnc3)N2)cc1)C1CCc2sc(CO)nc21` (single isomer, unassigned) [Example 189] fall in the same range of EC50: 11 to 100 nM for the first, 11 to 100 nM for the second.

First: O=C(Nc1ccc(CC2CC[C@H]([C@H](O)c3cccnc3)N2)cc1)C1CCc2scnc21 (single isomer, unassigned) [Example 190]
Second: O=C(Nc1ccc(CC2CC[C@H]([C@H](O)c3cccnc3)N2)cc1)[C@@H]1CCc2ncnn21 (single isomer, unassigned) [Example 194]
The EC50 of the first is lower: under 1 nM for the first, 11 to 100 nM for the second.

First: O=C(Nc1ccc(CC2CC[C@H]([C@H](O)c3cccnc3)N2)cc1)C1CCc2scnc21 (single isomer, unassigned) [Example 191]
Second: O=C1CC[C@@H](C(=O)Nc2ccc(CC3CC[C@H]([C@H](O)c4cccnc4)N3)cc2)N1 (single isomer, unassigned) [Example 197]
The EC50 of the first is lower: 11 to 100 nM for the first, 101 to 1000 nM for the second.

First: O=C(Nc1ccc(CC2CC[C@H]([C@H](O)c3cccnc3)N2)cc1)C1CCc2nc3ccccc3c(=O)n21 (single isomer, unassigned) [Example 192]
Second: CC(C(=O)Nc1ccc(CC2CC[C@H]([C@H](O)c3cccnc3)N2)cc1)n1cnc2ccccc2c1=O (single isomer, unassigned) [Example 218]
The EC50 of the first is higher: 11 to 100 nM for the first, 1 to 10 nM for the second.

`O=C(Nc1ccc(CC2CC[C@H]([C@H](O)c3cccnc3)N2)cc1)C1CCc2nc3ccccc3c(=O)n21` (single isomer, unassigned) [Example 193] and `CC(C(=O)Nc1ccc(CC2CC[C@H]([C@H](O)c3cccnc3)N2)cc1)n1ccc(C(N)=O)n1` (single isomer, unassigned) [Example 202] fall in the same range of EC50: 1 to 10 nM for the first, 1 to 10 nM for the second.

Compared with `CC(C(=O)Nc1ccc(CC2CC[C@H]([C@H](O)c3cccnc3)N2)cc1)c1cscn1` (single isomer, unassigned) [Example 195], `CCC(C(=O)Nc1ccc(CC2CC[C@H]([C@H](O)c3cccnc3)N2)cc1)c1cscn1` (single isomer, unassigned) [Example 204] is higher in EC50: under 1 nM for the first, 1 to 10 nM for the second.

`CC(C(=O)Nc1ccc(CC2CC[C@H]([C@H](O)c3cccnc3)N2)cc1)c1cscn1` (single isomer, unassigned) [Example 196] and `CCC(C(=O)Nc1ccc(CC2CC[C@H]([C@H](O)c3cccnc3)N2)cc1)c1cscn1` (single isomer, unassigned) [Example 205] fall in the same range of EC50: 11 to 100 nM for the first, 11 to 100 nM for the second.

`CC(C(=O)Nc1ccc(CC2CC[C@H]([C@H](O)c3cccnc3)N2)cc1)n1cc(C(=O)O)nn1` (single isomer, unassigned) [Example 198] and `CC(C(=O)Nc1ccc(CC2CC[C@H]([C@H](O)c3cccnc3)N2)cc1)n1cc(C(N)=O)nn1` (single isomer, unassigned) [Example 200] fall in the same range of EC50: 11 to 100 nM for the first, 11 to 100 nM for the second.

First: CC(C(=O)Nc1ccc(CC2CC[C@H]([C@H](O)c3cccnc3)N2)cc1)n1cc(C(=O)O)nn1 (single isomer, unassigned) [Example 199]
Second: CC(C(=O)Nc1ccc(CC2CC[C@H]([C@H](O)c3cccnc3)N2)cc1)n1cc(C(N)=O)nn1 (single isomer, unassigned) [Example 201]
The EC50 of the first is higher: 11 to 100 nM for the first, 1 to 10 nM for the second.

First: CC(C(=O)Nc1ccc(CC2CC[C@H]([C@H](O)c3cccnc3)N2)cc1)n1ccc(C(N)=O)n1 (single isomer, unassigned) [Example 203]
Second: CC(C(=O)Nc1ccc(CC2CC[C@H]([C@H](O)c3cccnc3)N2)cc1)n1cc(C(N)=O)cn1 (single isomer, unassigned) [Example 219]
The EC50 of the first is higher: 101 to 1000 nM for the first, 1 to 10 nM for the second. The second is the more potent here.

`CC(C(=O)Nc1ccc(CC2CC[C@H]([C@H](O)c3cccnc3)N2)cc1)n1nncc1C(=O)O` (single isomer, unassigned) [Example 206] and `COC(=O)c1cnnn1C(C)C(=O)Nc1ccc(CC2CC[C@H]([C@H](O)c3cccnc3)N2)cc1` (single isomer, unassigned) [Example 208] fall in the same range of EC50: 1 to 10 nM for the first, 1 to 10 nM for the second.

First: CC(C(=O)Nc1ccc(CC2CC[C@H]([C@H](O)c3cccnc3)N2)cc1)n1nncc1C(=O)O (single isomer, unassigned) [Example 207]
Second: COC(=O)c1cnnn1C(C)C(=O)Nc1ccc(CC2CC[C@H]([C@H](O)c3cccnc3)N2)cc1 (single isomer, unassigned) [Example 209]
The EC50 of the first is lower: 11 to 100 nM for the first, 101 to 1000 nM for the second.

First: Cc1cn(C(C)C(=O)Nc2ccc(CC3CC[C@H]([C@H](O)c4cccnc4)N3)cc2)nn1 (single isomer, unassigned) [Example 210]
Second: Cc1cnnn1C(C)C(=O)Nc1ccc(CC2CC[C@H]([C@H](O)c3cccnc3)N2)cc1 (single isomer, unassigned) [Example 212]
The EC50 of the first is lower: 11 to 100 nM for the first, 101 to 1000 nM for the second.

First: Cc1cn(C(C)C(=O)Nc2ccc(CC3CC[C@H]([C@H](O)c4cccnc4)N3)cc2)nn1 (single isomer, unassigned) [Example 211]
Second: Cc1cnnn1C(C)C(=O)Nc1ccc(CC2CC[C@H]([C@H](O)c3cccnc3)N2)cc1 (single isomer, unassigned) [Example 213]
The EC50 of the first is higher: 11 to 100 nM for the first, 1 to 10 nM for the second.

`CC(C(=O)Nc1ccc(CC2CC[C@H]([C@H](O)c3cccnc3)N2)cc1)c1ccn(C)n1` (single isomer, unassigned) [Example 214] and `Cc1nnc2c(C(C)C(=O)Nc3ccc(CC4CC[C@H]([C@H](O)c5cccnc5)N4)cc3)cccn12` (single isomer, unassigned) [Example 216] fall in the same range of EC50: 11 to 100 nM for the first, 11 to 100 nM for the second.

First: CC(C(=O)Nc1ccc(CC2CC[C@H]([C@H](O)c3cccnc3)N2)cc1)c1ccn(C)n1 (single isomer, unassigned) [Example 215]
Second: Cc1nnc2c(C(C)C(=O)Nc3ccc(CC4CC[C@H]([C@H](O)c5cccnc5)N4)cc3)cccn12 (single isomer, unassigned) [Example 217]
The EC50 of the first is higher: 101 to 1000 nM for the first, 11 to 100 nM for the second. The second is the more potent here.

`COCCC(C(=O)Nc1ccc(CC2CC[C@H]([C@H](O)c3cccnc3)N2)cc1)n1cccn1` (single isomer, unassigned) [Example 221] gave an EC50 of 1 to 10 nM.

Same assay, conditions: Table 5; human β3 functional activity given as ranges; read-out: Human β3 functional

For `O=C(Nc1ccc(CC2CC[C@H]([C@H](O)c3cccnc3)N2)cc1Br)C1CCc2sc(I)nc21` (single isomer, unassigned) [Example 243], the EC50 was 101 to 1000 nM.
In the case of `O=C(Nc1ccc(CC2CC[C@H]([C@H](O)c3cccnc3)N2)cc1Br)C1CCc2sc(I)nc21` (single isomer, unassigned) [Example 244], the EC50 is reported as 11 to 100 nM.

Same assay, conditions: cAMP production, CHO cells expressing human β3 AR; read-out: human Beta-3 agonist functional activity

`O=C(Nc1ccc(CC2CCC(C(O)c3cccnc3)N2)cc1Br)C1CCc2sc(Br)nc21` (single isomer, unassigned) [Example 240, (4S or 4R)-2-bromo-N-[2-bromo-4-({(2S,5R)-5-[(R)-hydroxy(pyridin-3-yl)methyl]pyrrolidin-2-yl}methyl)phenyl]-5,6-dihydro-4H-cyclopenta[d][1,3]thiazole-4-carboxamide] and `Nc1nc(CC(=O)Nc2ccc(C[C@@H]3CC[C@H]([C@H](O)c4cccnc4)N3)cc2)cs1` [Example 1, 2-2-Amino-1,3-thiazol-4-yl)-N-[4-({(2S,5R)-5-[(R)-hydroxy(pyridin-3-yl)methyl]pyrrolidin-2-yl}methyl)phenyl]acetamide, trfluoroacetic acid salt] cannot be ordered by EC50: under 1000 nM for the first, under 10 nM for the second.

`O=C(Nc1ccc(CC2CCC(C(O)c3cccnc3)N2)cc1Br)C1CCc2sc(Br)nc21` (single isomer, unassigned) [Example 241, (4S or 4R)-2-bromo-N-[2-bromo-4-({(2S,5R)-5-[(R)-hydroxy(pyridin-3-yl)methyl]pyrrolidin-2-yl}methyl)phenyl]-5,6-dihydro-4H-cyclopenta[d][1,3]thiazole-4-carboxamide] and `O=C(CN1CCCC1=O)Nc1ccc(C[C@@H]2CC[C@H]([C@H](O)c3cccnc3)N2)cc1` [Example 2, N-[4-({(2S,5R)-5-[(R)-Hydroxy(pyridin-3-yl)methyl]pyrrolidin-2-yl}methyl)phenyl]-2-(2-oxopyrrolidin-1-yl)acetamide, trfluoroacetic acid salt] cannot be ordered by EC50: under 100 nM for the first, under 100 nM for the second.

Source: patent US8501786B2, “Hydroxymethyl pyrrolidines as beta 3 adrenergic receptor agonists” (Merck Sharp & Dohme Corp., priority 2009, dated 2013)
